Measured values taken from PubChem BioAssay AID720632 (Broad Institute, 2013).
Calls of active or inactive are those of the source. How the calls were made is not given here.

Biological target: Caspase-6 (Homo sapiens) (UniProt P55212)
Assay: human caspase-6 inhibitors, dose response, biochemical, VEID-R110 fluorescence, cherry-pick (AID 720632)
Conditions: caspase-6, VEID-R110 fluorogenic substrate

Caspase-6 (Homo sapiens), sequence (P55212 24-179 limits assumed): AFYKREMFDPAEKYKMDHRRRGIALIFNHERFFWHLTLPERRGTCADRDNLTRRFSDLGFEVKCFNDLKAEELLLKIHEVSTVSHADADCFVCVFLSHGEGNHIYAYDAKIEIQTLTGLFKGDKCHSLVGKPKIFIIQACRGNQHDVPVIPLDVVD
Caspase-6 (Homo sapiens), sequence (P55212 194-293 limits assumed): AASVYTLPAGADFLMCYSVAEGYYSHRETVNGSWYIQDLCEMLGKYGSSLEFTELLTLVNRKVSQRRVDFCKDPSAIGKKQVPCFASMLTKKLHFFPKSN

Compound	activity change, negative = inhibition (at 26 µM (top of the series))	also measured
O=C(CCCn1c(=S)[nH]c2cc3c(cc2c1=O)OCO3)N1CCN(c2ccc(Cl)cc2)CC1	inactive	–
Cc1cccc(C)c1OCc1nc2ccccc2[nH]1	inactive	–
Cc1ccn2c(=S)[nH]nc2c1	inactive	–
CCOC(=O)c1c(C)c(C(=O)NCc2ccc(OC)cc2)c(C)n1C	inactive	–
COc1cccc(/C=N/Nc2nc(C)cc(=O)[nH]2)c1OC	inactive	–
Cc1ccc2c(c1)c1c(n2CC(O)CN2CCC(C)CC2)CCCC1 (stereo unspecified)	inactive	–
COc1ccccc1C(=O)Nc1ccc2c(c1)OC[C@H](C)N(CC1CC1)C[C@H](C)[C@H](OC)CN(C)C2=O	inactive	–
O=C1NC(=O)C(Sc2ccccc2[N+](=O)[O-])C(=O)N1	inactive	–
COc1ccc2c(C#N)c3ccccn3c2c1	inactive	–
CN1CCN(c2cc(CNC[C@H]3O[C@@H](n4cnc5c(=O)[nH]c(N)nc54)[C@H](O)[C@@H]3O)ccc2F)CC1	inactive	–
OC(c1ccc(F)cc1)c1ncc(-c2ccccc2F)[nH]1 (stereo unspecified)	inactive	–
O=C1Nc2cc(Cl)cnc2N2CCCC12 (stereo unspecified)	inactive	–
O=C(Nc1ccc(C(=O)N2CCCC2)cc1)c1ccc2c(c1)OCO2	inactive	–
Cc1nc2ccc(NS(=O)(=O)c3c(F)cc(F)cc3Br)cc2s1	inactive	–
Cc1onc(-c2ccc(Cl)cc2Cl)c1-c1csc(N/N=C/c2ccccc2Cl)n1	inactive	–
CSc1ccccc1OCc1cc(C(=O)N2CCc3c(Cl)cccc3C2)no1	inactive	–
CO[C@H]1CN(C)C(=O)c2ccc(NC(=O)C3CC3)cc2OC[C@@H](C)N(Cc2cccc(F)c2)C[C@@H]1C	inactive	–
CCN=c1sc(C(=O)Nc2ccccc2)c(C)n1CC	inactive	–
CN1CCCCC(NC(=O)COCc2ccccc2)C1=O (stereo unspecified)	inactive	–
CCc1ccccc1OCC(=O)OCC(=O)N1CC(=O)Nc2ccccc21	inactive	–
Cc1ccccc1C(=O)O/N=C(\N)c1ccccc1	inactive	–
COCC(=O)Nc1ccc2c(c1)OC[C@H](C)N(CC1CC1)C[C@@H](C)[C@H](OC)CN(C)C2=O	–	activity change, negative = inhibition (at 23.5 µM (top of the series)): inactive

Compound	activity change, negative = inhibition (at 26 µM (top of the series))	also measured
COc1ccccc1CNC(=O)COC(=O)c1ccc([N+](=O)[O-])o1	inactive	–
O=C(NCCc1ccccc1)c1cccc2c(-c3ccc(F)c(F)c3)coc12	inactive	–
CCCN1C[C@H](C)[C@@H](OC)CN(C)C(=O)c2ccc(NC(=O)c3ccccc3)cc2OC[C@H]1C	inactive	–
Cc1ccc(C(=O)NCC(=O)N(C)Cc2ccccc2C)s1	inactive	–
C#CCNC(=O)C[C@@H]1C[C@@]2(C(=O)OCC)CCC=C2N(Cc2ccc(Cl)cc2Cl)C1=O	inactive	–
COc1cc(NC(=O)c2cccnc2)c(Cl)cc1NC(=O)c1ccccc1	inactive	–
O=C(N/N=C/C1CC=CCC1)c1ccc(Cl)cc1O (stereo unspecified)	inactive	–
O=C(NN=C1CCCC1)c1n[nH]c2c1CCC2	inactive	–
O=C(Cn1cncn1)NCCCc1ccccc1	inactive	–
CC(C)(C)NC(=O)C1CCN(S(=O)(=O)c2cccc3nsnc23)CC1	inactive	–
CCc1nc2c(OCc3ccc(C(=O)OC)cc3)cccn2c1N(C)C(=O)c1ccc(C)cc1	inactive	–
O=C(O)c1cccc(Nc2ccnc(Nc3cccc(C(=O)O)c3)n2)c1	inactive	–
Cc1cccc(C)c1OCC(=O)NCc1ccccc1	inactive	–
CC(=O)Nc1ccc(C=NNc2ccc([N+](=O)[O-])cc2S(=O)(=O)Nc2ccccc2C(=O)O)cc1	inactive	–
CSc1ccc(CN2CCC2(C)C(=O)Nc2cccc(NS(C)(=O)=O)c2)cc1 (stereo unspecified)	inactive	–
N/C(Cc1cccc2ccccc12)=N\OC(=O)c1ccccc1F	inactive	–
O=C(COC(=O)c1cccc(OC(F)F)c1)Nc1cccc(S(=O)(=O)N2CCCC2)c1	inactive	–
CCCC(=O)Nc1ccc2c(c1)OC[C@@H](C)NC[C@H](C)[C@@H](OC)CN(C)C2=O	inactive	–
CCOC(=O)C1=C(COC(=O)c2ccc([N+](=O)[O-])s2)NC(=O)NC1C (stereo unspecified)	inactive	–
COc1ccc(OC)c(N(CC(=O)Nc2ccccc2)S(C)(=O)=O)c1	inactive	–
O=C(C1CCN(c2ccc(N3CCOCC3)nn2)CC1)N1CCc2ccccc2C1	inactive	–
O=C(NC[C@@H]1CC[C@@H]2[C@@H](CN2S(=O)(=O)c2ccccc2[N+](=O)[O-])O1)C1CCOCC1	–	activity change, negative = inhibition (at 8 µM (top of the series)): inactive

Compound	activity change, negative = inhibition (at 26 µM (top of the series))	also measured
Cc1ccc(C(=O)O)cc1NC(=O)c1ccc2c(c1)C(=O)N(c1ccc([N+](=O)[O-])cc1)C2=O	inactive	–
COc1ccccc1N(Cc1ccccc1)S(=O)(=O)c1cccc(C(=O)Nc2ccccn2)c1	inactive	–
S=c1[nH]c2cc(Cl)c3cccnc3c2o1	inactive	–
C/C=C/c1ccc([C@@H]2[C@H](CO)N(C(=O)C3CCCC3)C23CN(S(C)(=O)=O)C3)cc1	inactive	–
CO[C@H]1CN(C)C(=O)c2ccc(NC(=O)c3ccccc3)cc2OC[C@H](C)N(C(=O)C2CC2)C[C@H]1C	inactive	–
Cc1ccc(S(=O)(=O)N2CCC(C(=O)NCCCN3CCOCC3)CC2)cc1C	inactive	–
CCN(CC)C(=O)COc1ccc(/C(C)=N/NC(=O)c2ccccc2O)cc1	inactive	–
Cc1ccc(NC(=O)c2ocnc2C)cc1Cl	inactive	–
COc1ccc(C=Nc2cccc3ncccc23)cc1	inactive	–
O=C(CNc1cccc(S(=O)(=O)N2CCCC2)c1)Nc1cccc(Br)c1	inactive	–
CCC(=O)Nc1c(C#N)c2nc3ccccc3nc2n1-c1ccc(C)cc1	inactive	–
COc1ccccc1NC(=O)c1ccccc1S(=O)(=O)c1ccc([N+](=O)[O-])cc1	inactive	–
CCCCCn1nnnc1-c1nc2cc(C)c(C)cc2[nH]c1=O	inactive	–
CCC(=O)Nc1ccc2c(c1)OC[C@@H](C)NC[C@@H](C)[C@@H](OC)CN(C)C2=O	inactive	–
O=C(c1nc2ccccn2c1CN1CCCC(c2nc3ccccc3o2)C1)N1CCCC1 (stereo unspecified)	inactive	–
O=C(Nc1ccccc1)C1CCN(S(=O)(=O)c2ccc3c(c2)OCCO3)CC1	inactive	–
O=C(Nc1ccc(F)cc1)c1ccccc1NC(=O)C1CC=CCC1C(=O)O (stereo unspecified)	inactive	–
CCOc1ccc(Nc2nc(N3CCOCC3)nc(N3CCOCC3)n2)cc1	inactive	–
COc1cccc(C(=O)OC(C)C(=O)NCC2CCCCC2)c1 (stereo unspecified)	inactive	–
O=c1nc2ccc(Cl)cn2c2ccc(S(=O)(=O)N3CCCCC3)cc12	inactive	–
N#C[C@@H]1[C@H](c2ccc(C3=CCCCC3)cc2)[C@@H](CO)N1S(=O)(=O)c1ccccc1	–	activity change, negative = inhibition (at 23.5 µM (top of the series)): inactive
CCCC(=O)Nc1ccc2c(c1)OC[C@H](C)NC[C@H](C)[C@H](OC)CN(C)C2=O	inactive	–

Compound	activity change, negative = inhibition (at 26 µM (top of the series))	also measured
COc1cc(CN2CCc3ccccc3C2)cc([N+](=O)[O-])c1O	inactive	–
O=C(CCCn1c(=S)[nH]c2cc3c(cc2c1=O)OCO3)N1CCN(c2ccc(F)cc2)CC1	inactive	–
COC(=O)c1cccc(NC(=O)c2cccc(N3C(=O)CCC3=O)c2)c1	inactive	–
C=CCC(NCc1ccccc1)c1ccc(Cl)cc1 (stereo unspecified)	inactive	–
Cn1cc(C(CC(=O)O)C(=O)O)c2ccccc21 (stereo unspecified)	inactive	–
CCN(CC)C1CCN(Cc2c(C(=O)N3CCCCCCC3)nc3ccc(Cl)cn23)C1 (stereo unspecified)	inactive	–
CN(c1ccccc1)S(=O)(=O)c1cccc(C(=O)OCC(=O)Nc2ccc(C(N)=O)cc2)c1	inactive	–
Cn1c(SCCOc2ccccc2Cl)nnc1-c1ccncc1	inactive	–
CCCN1C[C@@H](C)[C@H](OC)CN(C)C(=O)c2ccc(NC(=O)c3ccccc3)cc2OC[C@@H]1C	inactive	–
Cc1ccccc1CN(C)C(=O)COC(=O)CSc1ccc([N+](=O)[O-])cc1	inactive	–
CCCC(=O)Nc1ccc2c(c1)OC[C@H](C)N(CCC)C[C@H](C)[C@@H](OC)CN(C)C2=O	inactive	–
O=C(Nc1ccc(F)cc1)N1CCN(C(=O)C2CCCO2)CC1 (stereo unspecified)	inactive	–
COc1cc(OC)c(NS(=O)(=O)c2c(C)[nH]c(=O)[nH]c2=O)cc1Cl	inactive	–
O=C(N/N=C\c1ccc([N+](=O)[O-])o1)c1cncc(Br)c1	inactive	–
CC(C)(C)NC(=O)C(=O)NN=C1CCCCCCCCCCC1	inactive	–
COc1cccc(CNC(=O)CCn2ccc3cc(S(=O)(=O)N4CCCC4)ccc32)c1	inactive	–
CCO[C@H]1OC(C(=O)N2CCOCC2)=C[C@@H](c2ccc3c(c2)OCO3)[C@@H]1CCCO	inactive	–
CCCC(=O)Nc1ccc2c(c1)OC[C@@H](C)N(C)C[C@@H](C)[C@H](OC)CN(C)C2=O	inactive	–
CCCC(=O)Nc1ccc2c(c1)OC[C@H](C)N(Cc1ccc(F)cc1)C[C@@H](C)[C@H](OC)CN(C)C2=O	inactive	–
CC(=O)Nc1cccc(NC(=O)c2cc([N+](=O)[O-])ccc2N2CCCCC2)c1	inactive	–
